Experimental findings from patent US20260356851A1, “TRICYCLIC COMPOUNDS AND USES THEREOF” (HUTCHMED LIMITED, priority 2023, published 2026) are described below.

Common to all, as to type: cell-based
The target of assay [1] is T1, pERK1/2 (Thr202/Tyr204), NCI-1H441 (KRAS G12V) (Homo sapiens, UniProt P01116, G12V).
T1 construct: pERK1/2 HTRF read-out
Nature of the assay: Assay of intracellular pERK1/2 (Thr202/Tyr204) phosphorylation in NCI-H441 cells (KRAS G12V). The following applies: pERK1/2, 2 days, read-out: NCI-H441 (KRAS G12V) IC50. In a few lines:
(§1)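 HTRF detection of Thr202/Tyr204-phosphorylated ERK1/2 (665/615 nm ratio) in lysates from cells treated 2 days with serially 3-fold diluted compound.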

The target in assay [2] is T2, pERK1/2 (Thr202/Tyr204), PANC-1 (KRAS G121D) (Homo sapiens, UniProt P01116, G12D).
T2 construct: pERK1/2 HTRF read-out
Nature of the assay: Assay of intracellular pERK1/2 (Thr202/Tyr204) phosphorylation in PANC-1 cells (KRAS G12D). Particulars: pERK1/2, 2 days, read-out: PANC-1 (KRAS G12D) IC50. Put shortly:
as §1

For assay [3], the target named is T3, pERK1/2 (Thr202/Tyr204), NCI-1H358 (KRAS G12C) (Homo sapiens, UniProt P01116, G12C).
T3 construct: pERK1/2 HTRF read-out
Nature of the assay: Assay of intracellular pERK1/2 (Thr202/Tyr204) phosphorylation in NCI-H358 cells (KRAS G12C). The following applies: pERK1/2, 2 days, read-out: NCI-H358 (KRAS G12C) IC50. In a few lines: as §1

T1 sequence (P01116 1-188 isoform P01116-2 G12V): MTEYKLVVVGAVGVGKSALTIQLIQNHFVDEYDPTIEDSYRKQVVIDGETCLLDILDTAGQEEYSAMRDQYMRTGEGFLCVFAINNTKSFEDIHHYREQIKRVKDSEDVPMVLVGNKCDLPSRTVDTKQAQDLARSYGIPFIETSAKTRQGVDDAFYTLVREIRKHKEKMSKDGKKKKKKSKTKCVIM
T3 sequence (P01116 1-188 isoform P01116-2 G12C): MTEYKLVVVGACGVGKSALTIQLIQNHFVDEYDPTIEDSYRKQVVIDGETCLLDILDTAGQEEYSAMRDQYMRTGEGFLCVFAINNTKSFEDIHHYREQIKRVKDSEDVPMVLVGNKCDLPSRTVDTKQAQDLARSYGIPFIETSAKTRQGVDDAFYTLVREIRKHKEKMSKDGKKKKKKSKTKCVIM
T2 sequence (P01116 1-188 isoform P01116-2 G12D): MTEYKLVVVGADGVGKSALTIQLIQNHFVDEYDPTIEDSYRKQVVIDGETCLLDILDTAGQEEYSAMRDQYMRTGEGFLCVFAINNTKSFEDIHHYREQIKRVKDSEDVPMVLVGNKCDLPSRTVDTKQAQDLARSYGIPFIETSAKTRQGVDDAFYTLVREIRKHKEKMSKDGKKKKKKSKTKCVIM

What is called IC50 is the concentration at which inhibition is half-maximal. For `CC(c1cccnc1N)N1c2nc(OC[C@@]34CCCN3C[C@H](F)C4)nc3c(F)c(-c4cc(O)cc5ccc(F)c(F)c45)nc(c23)OC[C@@H]1C` (single isomer, unassigned) [Compound 275, 4-((S)-10-((R or S)-1-(2-aminopyridin-3-yl)ethyl)-4-fluoro-2-(((2R,7aS)-2-fluorotetrahydro-1H-pyrrolizin-7a(5H)-yl)methoxy)-9-methyl-9,10-dihydro-8H-7-oxa-1,3,6,10-tetraazacyclohepta[de]naphthalen-5-yl)-5,6-difluoronaphthalen-2-ol], the IC50 was determined as 0.8 nM in assay [1], 0.4 nM in assay [2] and 0.4 nM in assay [3].

On to `CC(c1cccnc1N)N1c2nc(OC[C@@]34CCCN3C[C@H](F)C4)nc3c(F)c(-c4cc(O)cc5ccc(F)c(F)c45)nc(c23)OC[C@@H]1C` (single isomer, unassigned) [Compound 276, 4-((S)-10-((R or S)-1-(2-aminopyridin-3-yl)ethyl)-4-fluoro-2-(((2R,7aS)-2-fluorotetrahydro-1H-pyrrolizin-7a(5H)-yl)methoxy)-9-methyl-9,10-dihydro-8H-7-oxa-1,3,6,10-tetraazacyclohepta[de]naphthalen-5-yl)-5,6-difluoronaphthalen-2-ol], for which the IC50 is greater than 100 nM in assay [1], greater than 100 nM in assay [2] and 77 nM in assay [3].

For the molecule `Cc1c(F)c(N)cc(-c2nc3c4c(nc(OC[C@@H]5C[C@@H](F)CN5C)nc4c2F)N(C(C)c2cccnc2N)[C@@H](C)CO3)c1C(F)(F)F` (single isomer, unassigned) [Compound 277, 3-((R or S)-1-((S)-5-(5-amino-4-fluoro-3-methyl-2-(trifluoromethyl)phenyl)-4-fluoro-2-(((2S,4R)-4-fluoro-1-methylpyrrolidin-2-yl)methoxy)-9-methyl-8,9-dihydro-10H-7-oxa-1,3,6,10-tetraazacyclohepta[de]naphthalen-10-yl)ethyl)pyridin-2-amine], the half-inhibitory concentration (IC50) in assay [1] is greater than 100 nM; in assay [2], greater than 100 nM; in assay [3], 93 nM.

Regarding `Cc1c(F)c(N)cc(-c2nc3c4c(nc(OC[C@@H]5C[C@@H](F)CN5C)nc4c2F)N(C(C)c2cccnc2N)[C@@H](C)CO3)c1C(F)(F)F` (single isomer, unassigned) [Compound 278, 3-((R or S)-1-((S)-5-(5-amino-4-fluoro-3-methyl-2-(trifluoromethyl)phenyl)-4-fluoro-2-(((2S,4R)-4-fluoro-1-methylpyrrolidin-2-yl)methoxy)-9-methyl-8,9-dihydro-10H-7-oxa-1,3,6,10-tetraazacyclohepta[de]naphthalen-10-yl)ethyl)pyridin-2-amine], the IC50 was 0.6 nM in assay [1], 2 nM in assay [2] and 0.2 nM in assay [3].

As to `CCc1c(F)ccc2cc(O)cc(-c3nc4c5c(nc(OC[C@@]67CCCN6C[C@H](F)C7)nc5c3F)N(C(C)c3cccnc3N)[C@@H](C)CO4)c12` (single isomer, unassigned) [Compound 279, 4-((S)-10-((R or S)-1-(2-aminopyridin-3-yl)ethyl)-4-fluoro-2-(((2R,7aS)-2-fluorotetrahydro-1H-pyrrolizin-7a(5H)-yl)methoxy)-9-methyl-9,10-dihydro-8H-7-oxa-1,3,6,10-tetraazacyclohepta[de]naphthalen-5-yl)-5-ethyl-6-fluoronaphthalen-2-ol], the IC50 in assay [1] amounted to 0.4 nM; in assay [2], 0.2 nM; in assay [3] it was 0.3 nM.

On to `CCc1c(F)ccc2cc(O)cc(-c3nc4c5c(nc(OC[C@@]67CCCN6C[C@H](F)C7)nc5c3F)N(C(C)c3cccnc3N)[C@@H](C)CO4)c12` (single isomer, unassigned) [Compound 280, 4-((S)-10-((R or S)-1-(2-aminopyridin-3-yl)ethyl)-4-fluoro-2-(((2R,7aS)-2-fluorotetrahydro-1H-pyrrolizin-7a(5H)-yl)methoxy)-9-methyl-9,10-dihydro-8H-7-oxa-1,3,6,10-tetraazacyclohepta[de]naphthalen-5-yl)-5-ethyl-6-fluoronaphthalen-2-ol], for which the results for the IC50 in assay [1], in assay [2] and in assay [3] were 11 nM, 5 nM and 6 nM, respectively.

Turning to `Cc1cc(N)cc(-c2nc3c4c(nc(OC[C@@H]5C[C@@H](F)CN5C)nc4c2F)N(C(C)c2cccnc2N)[C@@H](C)CO3)c1C(F)(F)F` (single isomer, unassigned) [Compound 282, 3-((R or S)-1-((S)-5-(5-amino-3-methyl-2-(trifluoromethyl)phenyl)-4-fluoro-2-(((2S,4R)-4-fluoro-1-methylpyrrolidin-2-yl)methoxy)-9-methyl-8,9-dihydro-10H-7-oxa-1,3,6,10-tetraazacyclohepta[de]naphthalen-10-yl)ethyl)pyridin-2-amine], the IC50 in assay [1] amounted to 0.4 nM; in assay [2], 3 nM; in assay [3], 0.2 nM.

On to `Cc1cc(N)cc(-c2nc3c4c(nc(OC[C@@H]5C[C@@H](F)CN5C)nc4c2F)N(C(C)c2cccnc2N)[C@@H](C)CO3)c1C(F)(F)F` (single isomer, unassigned) [Compound 283, 3-((R or S)-1-((S)-5-(5-amino-3-methyl-2-(trifluoromethyl)phenyl)-4-fluoro-2-(((2S,4R)-4-fluoro-1-methylpyrrolidin-2-yl)methoxy)-9-methyl-8,9-dihydro-10H-7-oxa-1,3,6,10-tetraazacyclohepta[de]naphthalen-10-yl)ethyl)pyridin-2-amine], for which the results for the IC50 in assay [1], in assay [2] and in assay [3] were greater than 100 nM, greater than 100 nM and 55 nM, respectively.

With `C#Cc1c(F)ccc2cc(O)cc(-c3nc4c5c(nc(OC[C@@H]6C[C@@H](F)CN6C)nc5c3F)N(C(C)c3cccnc3N)[C@@H](C)CO4)c12` (single isomer, unassigned) [Compound 284, 4-((S)-10-((R or S)-1-(2-aminopyridin-3-yl)ethyl)-4-fluoro-2-(((2S,4R)-4-fluoro-1-methylpyrrolidin-2-yl)methoxy)-9-methyl-9,10-dihydro-8H-7-oxa-1,3,6,10-tetraazacyclohepta[de]naphthalen-5-yl)-5-ethynyl-6-fluoronaphthalen-2-ol], the results for the IC50 in assay [1], in assay [2] and in assay [3] were 0.5 nM, 0.3 nM and 0.2 nM, respectively.

On to `C#Cc1c(F)ccc2cc(O)cc(-c3nc4c5c(nc(OC[C@@H]6C[C@@H](F)CN6C)nc5c3F)N(C(C)c3cccnc3N)[C@@H](C)CO4)c12` (single isomer, unassigned) [Compound 285, 4-((S)-10-((R or S)-1-(2-aminopyridin-3-yl)ethyl)-4-fluoro-2-(((2S,4R)-4-fluoro-1-methylpyrrolidin-2-yl)methoxy)-9-methyl-9,10-dihydro-8H-7-oxa-1,3,6,10-tetraazacyclohepta[de]naphthalen-5-yl)-5-ethynyl-6-fluoronaphthalen-2-ol], for which the IC50 came out at 17 nM in assay [1], 86 nM in assay [2] and 27 nM in assay [3].

Turning to `C[C@H](c1cccnc1N)N1c2nc(OC[C@@H]3C[C@@H](F)CN3C)nc3c(F)c(-c4cc(N)cc(Cl)c4C(F)(F)F)nc(c23)OC[C@@H]1C` (single isomer, unassigned) [Compound 286, 3-((R or S)-1-((S)-5-(5-amino-3-chloro-2-(trifluoromethyl)phenyl)-4-fluoro-2-(((2S,4R)-4-fluoro-1-methylpyrrolidin-2-yl)methoxy)-9-methyl-8,9-dihydro-1H-7-oxa-1,3,6,10-tetraazacyclohepta[de]naphthalen-10-yl)ethyl)pyridin-2-amine], the IC50 in assay [1] was greater than 100 nM; in assay [2] it was greater than 100 nM; in assay [3] it was 57 nM.

Turning to `CC(c1cccnc1N)N1c2nc(OC[C@@H]3C[C@@H](F)CN3C)nc3c(F)c(-c4cc(N)cc(Cl)c4C(F)(F)F)nc(c23)OC[C@@H]1C` (single isomer, unassigned) [Compound 287, 3-((R or S)-1-((S)-5-(5-amino-3-chloro-2-(trifluoromethyl)phenyl)-4-fluoro-2-(((2S,4R)-4-fluoro-1-methylpyrrolidin-2-yl)methoxy)-9-methyl-8,9-dihydro-10H-7-oxa-1,3,6,10-tetraazacyclohepta[de]naphthalen-10-yl)ethyl)pyridin-2-amine], the IC50 is 0.4 nM in assay [1], 2 nM in assay [2] and 0.2 nM in assay [3].

As for `CC(c1cccnc1N)N1c2nc(OC[C@@]34CCCN3C[C@H](F)C4)nc3c(F)c(-c4c(C(F)(F)F)c(Cl)cc5[nH]ncc45)nc(c23)OC[C@@H]1C` (single isomer, unassigned) [Compound 330], the IC50 in assay [1] stood at 0.5 nM; in assay [2] it was 0.3 nM; in assay [3] it was 0.4 nM.

With `CC(c1cccnc1N)N1c2nc(OC[C@@]34CCCN3C[C@H](F)C4)nc3c(F)c(-c4c(Cl)c(C(F)(F)F)cc5[nH]ncc45)nc(c23)OC[C@@H]1C` (single isomer, unassigned) [Compound 361], the IC50 came to 5 nM in assay [1], 34 nM in assay [2] and 2 nM in assay [3].

As for `CC(c1cccnc1N)N1c2nc(OC[C@@]34CCCN3C[C@H](F)C4)nc3c(F)c(-c4c5c(cc6[nH]ncc46)CCC5=O)nc(c23)OC[C@@H]1C` (single isomer, unassigned) [Compound 373], the IC50 in assay [1] was 25 nM; in assay [2], 41 nM; in assay [3], 14 nM.

Take `Cc1c(C(F)(F)F)c(-c2nc3c4c(nc(OC[C@@]56CCCN5C[C@H](F)C6)nc4c2F)N(C(C)c2cccnc2N)[C@@H](C)CO3)c2c(Cl)n[nH]c2c1F` (single isomer, unassigned) [Compound 382]: the results for the IC50 in assay [1], in assay [2] and in assay [3] were 5 nM, 2 nM and 3 nM, respectively.
